Laboratory results published in ChEMBL document CHEMBL3352547, “A concise diastereoselective approach to enantioenriched substituted piperidines and their in vitro cytotoxicity evaluation” (Bioorg Med Chem Lett, 2014).

Key:
Assay type in all cases: functional, cell-based; call rule not given here
[1] = system: HeLa; experiment: Cytotoxicity against human HeLa cells by MTT assay
[2] = system: DU-145; experiment: Cytotoxicity against human DU145 cells by MTT assay
[3] = system: MCF7; experiment: Cytotoxicity against human MCF7 cells by MTT assay
[4] = system: A549; experiment: Cytotoxicity against human A549 cells by MTT assay
[5] = Homo sapiens, HeLa, read-out: IC50
[6] = Homo sapiens, MCF7, read-out: IC50
[7] = Homo sapiens, A549, read-out: IC50
[8] = Homo sapiens, DU-145, read-out: IC50

Row | SMILES | IC50 [1, 5] | IC50 ([2]; du-145) | IC50 [3, 6] | IC50 [4, 7] | IC50 [2, 8] | IC50 ([4]; a549) | IC50 ([1]; hela) | IC50 ([3]; mcf7)
1 | COC(=O)C[C@H]1C[C@H](O)[C@@H](C)[C@@H](c2ccc(F)cc2)N1 | 17.4 µM | Not Active | 18.2 µM | 17.2 µM |  |  |  | 
2 | COC(=O)C[C@H]1C[C@@H](O)[C@@H](C)[C@@H](c2ccc(OC)cc2)N1 | 11.5 µM |  | 10.4 µM | 23.5 µM | 12.6 µM |  |  | 
3 | COC(=O)C[C@H]1C[C@@H](O)[C@@H](C)[C@@H](c2ccc(F)cc2)N1 | 19.8 µM |  | 15.6 µM | 26.6 µM | 51.7 µM |  |  | 
4 | COC(=O)C[C@H]1C[C@H](O)[C@@H](C)[C@@H](c2ccc(OC)cc2)N1 | 5.3 µM |  | 5.1 µM | 5.4 µM | 6.5 µM |  |  | 
5 | COc1ccc([C@H]2N[C@@H](CC(=O)O)C[C@H](O)[C@H]2C)cc1 | 19.9 µM |  | 12.5 µM | 20.1 µM | 15.7 µM |  |  | 
6 | COc1cccc2c1C(=O)c1c(O)c3c(c(O)c1C2=O)C[C@@](O)(C(=O)CO)C[C@@H]3O[C@H]1C[C@H](N)[C@H](O)[C@H](C)O1 [DOXORUBICIN] | 0.7 µM |  | 0.6 µM | 0.6 µM |  |  |  | 
7 | C[C@H]1[C@H](O)C[C@@H](CC(=O)O)N[C@H]1c1ccccc1 | 33.4 µM |  | 23.1 µM | 28.9 µM | 46.5 µM |  |  | 
8 | C[C@H]1[C@H](O)C[C@@H](CCO)N[C@H]1c1ccccc1 | 31.5 µM |  | 39.8 µM | 31.2 µM | 41.6 µM |  |  | 
9 | COC(=O)C[C@H]1C[C@@H](O)[C@@H](C)[C@@H](c2ccc(C)cc2)N1 | 13.4 µM |  | 12.2 µM | 29 µM | 49.7 µM |  |  | 
10 | COC(=O)C[C@H]1C[C@H](O)[C@@H](C)[C@@H](c2ccc(C(C)C)cc2)N1 | 18.2 µM |  | 17.1 µM |  | 27.4 µM | Not Active |  | 
11 | COC(=O)C[C@@H]1C[C@@H](O)[C@H](C)[C@H](c2ccccc2)N1 | 6.5 µM |  | 5.4 µM | 8.5 µM | 6.3 µM |  |  | 
12 | COC(=O)C[C@H]1C[C@@H](O)[C@@H](C)[C@@H](c2ccc(C(C)C)cc2)N1 |  |  |  |  | 110 µM | Not Active | Not Active | Not Active
13 | COc1ccc([C@H]2N[C@@H](CCO)C[C@H](O)[C@H]2C)cc1 | 16.5 µM |  | 13.7 µM | 17.6 µM | 14.8 µM |  |  | 
14 | COC(=O)C[C@@H]1C[C@H](O)[C@H](C)[C@H](c2ccccc2)N1 | 14.2 µM |  | 12.3 µM | 20.5 µM | 11.3 µM |  |  | 
15 | COC(=O)C[C@H]1C[C@H](O)[C@@H](C)[C@@H](c2ccc(C)cc2)N1 |  |  |  | 97.6 µM | 330 µM |  | Not Active | Not Active
16 | COC(=O)C[C@H]1C[C@H](O)[C@H](C)[C@@H](c2ccccc2)N1 | 41.1 µM | Not Active |  | 69.2 µM |  |  |  | Not Active
17 | COC(=O)C[C@H]1C[C@@H](O)[C@H](C)[C@@H](c2ccccc2)N1 | 35.2 µM |  | 35.6 µM | 34.6 µM | 64.1 µM |  |  | 
